Test system: 282377-053-R-J1-PDC complex spheroid viability
Test: Anticancer human tumor 282377-053-R-J1-PDC patient-derived colon adenocarcinoma cell line growth inhibition [RAS]
Conditions: for IC50: curve of first compound; for viability, T/C: stronger effect = lower value; active means viability on the fitted dose curve at most 10% of control; inactive means the rest
Method in brief: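 Tumour cells grown as complex spheroids with HUVEC endothelial cells and mesenchymal stem cells, treated with RAS pathway inhibitor combinations. Each agent spans half-log steps from near clinical Cmax, or 10 microM where Cmax is unknown.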

[1] = second compound 0.00316 µM, first compound 0.0316 µM
[2] = second compound 0.00316 µM, first compound 0.1 µM
[3] = second compound 0.00316 µM, first compound 0.316 µM
[4] = second compound 0.00316 µM, first compound 1 µM
[5] = second compound 0.01 µM, first compound 0.0316 µM
[6] = second compound 0.01 µM, first compound 0.1 µM
[7] = second compound 0.01 µM, first compound 0.316 µM
[8] = second compound 0.01 µM, first compound 1 µM
[9] = second compound 0.0316 µM, first compound 0.0316 µM
[10] = second compound 0.0316 µM, first compound 0.1 µM
[11] = second compound 0.0316 µM, first compound 0.316 µM
[12] = second compound 0.0316 µM, first compound 1 µM
[13] = second compound 0.1 µM, first compound 0.0316 µM
[14] = second compound 0.1 µM, first compound 0.1 µM
[15] = second compound 0.1 µM, first compound 0.316 µM
[16] = second compound 0.1 µM, first compound 1 µM
[17] = second compound 0.316 µM, first compound 0.0316 µM
[18] = second compound 0.316 µM, first compound 0.1 µM
[19] = second compound 0.316 µM, first compound 0.316 µM
[20] = second compound 0.316 µM, first compound 1 µM
[21] = second compound 1 µM, first compound 0.0316 µM
[22] = second compound 1 µM, first compound 0.1 µM
[23] = second compound 1 µM, first compound 0.316 µM
[24] = second compound 1 µM, first compound 1 µM
[25] = second compound 0.00316 µM, first compound 0.000949 µM
[26] = second compound 0.00316 µM, first compound 0.003 µM
[27] = second compound 0.00316 µM, first compound 0.00949 µM
[28] = second compound 0.00316 µM, first compound 0.03 µM
[29] = second compound 0.00316 µM, first compound 0.0949 µM
[30] = second compound 0.00316 µM, first compound 0.3 µM
[31] = second compound 0.01 µM, first compound 0.000949 µM
[32] = second compound 0.01 µM, first compound 0.003 µM
[33] = second compound 0.01 µM, first compound 0.00949 µM
[34] = second compound 0.01 µM, first compound 0.03 µM
[35] = second compound 0.01 µM, first compound 0.0949 µM
[36] = second compound 0.01 µM, first compound 0.3 µM
[37] = second compound 0.0316 µM, first compound 0.000949 µM
[38] = second compound 0.0316 µM, first compound 0.003 µM
[39] = second compound 0.0316 µM, first compound 0.00949 µM
[40] = second compound 0.0316 µM, first compound 0.03 µM
[41] = second compound 0.0316 µM, first compound 0.0949 µM
[42] = second compound 0.0316 µM, first compound 0.3 µM
[43] = second compound 0.1 µM, first compound 0.000949 µM
[44] = second compound 0.1 µM, first compound 0.003 µM
[45] = second compound 0.1 µM, first compound 0.00949 µM
[46] = second compound 0.1 µM, first compound 0.03 µM
[47] = second compound 0.1 µM, first compound 0.0949 µM
[48] = second compound 0.1 µM, first compound 0.3 µM
[49] = second compound 0.316 µM, first compound 0.000949 µM
[50] = second compound 0.316 µM, first compound 0.003 µM
[51] = second compound 0.316 µM, first compound 0.00949 µM
[52] = second compound 0.316 µM, first compound 0.03 µM
[53] = second compound 0.316 µM, first compound 0.0949 µM
[54] = second compound 0.316 µM, first compound 0.3 µM
[55] = second compound 1 µM, first compound 0.000949 µM
[56] = second compound 1 µM, first compound 0.003 µM
[57] = second compound 1 µM, first compound 0.00949 µM
[58] = second compound 1 µM, first compound 0.03 µM
[59] = second compound 1 µM, first compound 0.0949 µM
[60] = second compound 1 µM, first compound 0.3 µM
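Further: spheroids exposed to agents for seven days before readout.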
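Wherever viability, T/C is given: luminescence viability as percent of DMSO vehicle control wells.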

CC(=O)OC12COC1CC(O)C1(C)C(=O)C(O)C3=C(C)C(OC(=O)C(O)C(NC(=O)OC(C)(C)C)c4ccccc4)CC(O)(C(OC(=O)c4ccccc4)C21)C3(C)C (stereo not drawn) + C=CC(=O)N1CCN(c2nc(OCC3CCCN3C)nc3c(F)c(-c4nc(N)cc(C)c4C(F)(F)F)c(Cl)cc23)C(C)C1
inactive: viability, T/C [1] 24.3% | viability, T/C [2] 19.9% | viability, T/C [3] 16.3% | viability, T/C [4] 29.4% | viability, T/C (second compound 0.00316 µM, first compound 3.16 µM) 39.7% | viability, T/C (second compound 0.00316 µM, first compound 10 µM) 54.2% | viability, T/C [5] 25.9% | viability, T/C [6] 18% | viability, T/C [7] 22.7% | viability, T/C [8] 27.5% | viability, T/C (second compound 0.01 µM, first compound 3.16 µM) 38.6% | viability, T/C (second compound 0.01 µM, first compound 10 µM) 51.8% | viability, T/C [9] 22.9% | viability, T/C [10] 20.5% | viability, T/C [11] 18.1% | viability, T/C [12] 26.9% | viability, T/C (second compound 0.0316 µM, first compound 3.16 µM) 34.2% | viability, T/C (second compound 0.0316 µM, first compound 10 µM) 57.8% | viability, T/C [13] 24.1% | viability, T/C [14] 21.2% | viability, T/C [15] 20.1% | viability, T/C [16] 28.1% | viability, T/C (second compound 0.1 µM, first compound 3.16 µM) 38.4% | viability, T/C (second compound 0.1 µM, first compound 10 µM) 57.3% | viability, T/C [17] 22% | viability, T/C [18] 21.6% | viability, T/C [19] 24.1% | viability, T/C [20] 25.5% | viability, T/C (second compound 0.316 µM, first compound 3.16 µM) 45.7% | viability, T/C (second compound 0.316 µM, first compound 10 µM) 53.6% | viability, T/C [21] 27.8% | viability, T/C [22] 19.3% | viability, T/C [23] 28.1% | viability, T/C [24] 38% | viability, T/C (second compound 1 µM, first compound 3.16 µM) 44% | viability, T/C (second compound 1 µM, first compound 10 µM) 58.6%
< 31.6 nM: IC50 (second compound 0.00316 µM) | IC50 (second compound 0.01 µM) | IC50 (second compound 0.0316 µM) | IC50 (second compound 0.1 µM) | IC50 (second compound 0.316 µM) | IC50 (second compound 1 µM)

CC1(C)CCC(Nc2ncc(C(F)(F)F)c(-c3c[nH]c4c(P(C)(C)=O)c(C#N)ccc34)n2)CN1 (stereo not drawn) + C=CC(=O)N1CCN(c2nc(OCC3CCCN3C)nc3c(F)c(-c4nc(N)cc(C)c4C(F)(F)F)c(Cl)cc23)C(C)C1
> 300 nM: IC50 (second compound 0.00316 µM) | IC50 (second compound 0.01 µM) | IC50 (second compound 0.0316 µM) | IC50 (second compound 0.1 µM) | IC50 (second compound 0.316 µM) | IC50 (second compound 1 µM)
inactive: viability, T/C [25] 114% | viability, T/C [26] 120% | viability, T/C [27] 79.9% | viability, T/C [28] 51.3% | viability, T/C [29] 61.1% | viability, T/C [30] 55.6% | viability, T/C [31] 123% | viability, T/C [32] 88.7% | viability, T/C [33] 85.1% | viability, T/C [34] 64.5% | viability, T/C [35] 58.8% | viability, T/C [36] 56.1% | viability, T/C [37] 91.7% | viability, T/C [38] 90.8% | viability, T/C [39] 72.3% | viability, T/C [40] 59.6% | viability, T/C [41] 64.8% | viability, T/C [42] 56.1% | viability, T/C [43] 105% | viability, T/C [44] 101% | viability, T/C [45] 91.3% | viability, T/C [46] 66.3% | viability, T/C [47] 73.1% | viability, T/C [48] 61.8% | viability, T/C [49] 90.2% | viability, T/C [50] 102% | viability, T/C [51] 87.9% | viability, T/C [52] 65.1% | viability, T/C [53] 58.5% | viability, T/C [54] 67.1% | viability, T/C [55] 92.9% | viability, T/C [56] 112% | viability, T/C [57] 86.8% | viability, T/C [58] 61.6% | viability, T/C [59] 67% | viability, T/C [60] 71.8%

CCc1c2c(nc3ccc(O)cc13)-c1cc3c(c(=O)n1C2)COC(=O)[C@]3(O)CC + C=CC(=O)N1CCN(c2nc(OCC3CCCN3C)nc3c(F)c(-c4nc(N)cc(C)c4C(F)(F)F)c(Cl)cc23)C(C)C1
> 300 nM: IC50 (second compound 0.00316 µM) | IC50 (second compound 0.01 µM) | IC50 (second compound 0.0316 µM) | IC50 (second compound 0.1 µM) | IC50 (second compound 0.316 µM) | IC50 (second compound 1 µM)
inactive: viability, T/C [25] 117% | viability, T/C [26] 122% | viability, T/C [27] 122% | viability, T/C [28] 99.6% | viability, T/C [29] 87.7% | viability, T/C [30] 59% | viability, T/C [31] 109% | viability, T/C [32] 119% | viability, T/C [33] 95.1% | viability, T/C [34] 93.9% | viability, T/C [35] 79.4% | viability, T/C [36] 66.1% | viability, T/C [37] 99.2% | viability, T/C [38] 109% | viability, T/C [39] 113% | viability, T/C [40] 93.2% | viability, T/C [41] 87% | viability, T/C [42] 61.7% | viability, T/C [43] 115% | viability, T/C [44] 126% | viability, T/C [45] 124% | viability, T/C [46] 85.8% | viability, T/C [47] 97.8% | viability, T/C [48] 65.1% | viability, T/C [49] 128% | viability, T/C [50] 114% | viability, T/C [51] 123% | viability, T/C [52] 98.6% | viability, T/C [53] 89.7% | viability, T/C [54] 64.2% | viability, T/C [55] 135% | viability, T/C [56] 126% | viability, T/C [57] 106% | viability, T/C [58] 94.2% | viability, T/C [59] 95.2% | viability, T/C [60] 61.2%

Nc1ccn(C2OC(CO)C(O)C2(F)F)c(=O)n1 (stereo not drawn) + C=CC(=O)N1CCN(c2nc(OCC3CCCN3C)nc3c(F)c(-c4nc(N)cc(C)c4C(F)(F)F)c(Cl)cc23)C(C)C1
inactive: viability, T/C (second compound 0.00316 µM, first compound 0.00316 µM) 108% | viability, T/C (second compound 0.00316 µM, first compound 0.01 µM) 98.9% | viability, T/C [1] 99% | viability, T/C [2] 80.1% | viability, T/C [3] 44.1% | viability, T/C [4] 31.6% | viability, T/C (second compound 0.01 µM, first compound 0.00316 µM) 98.3% | viability, T/C (second compound 0.01 µM, first compound 0.01 µM) 111% | viability, T/C [5] 102% | viability, T/C [6] 72.4% | viability, T/C [7] 47.8% | viability, T/C [8] 35% | viability, T/C (second compound 0.0316 µM, first compound 0.00316 µM) 117% | viability, T/C (second compound 0.0316 µM, first compound 0.01 µM) 110% | viability, T/C [9] 118% | viability, T/C [10] 69.2% | viability, T/C [11] 46.9% | viability, T/C [12] 33.8% | viability, T/C (second compound 0.1 µM, first compound 0.00316 µM) 90.1% | viability, T/C (second compound 0.1 µM, first compound 0.01 µM) 101% | viability, T/C [13] 101% | viability, T/C [14] 79.8% | viability, T/C [15] 47.2% | viability, T/C [16] 34.4% | viability, T/C (second compound 0.316 µM, first compound 0.00316 µM) 117% | viability, T/C (second compound 0.316 µM, first compound 0.01 µM) 125% | viability, T/C [17] 107% | viability, T/C [18] 65.6% | viability, T/C [19] 52.2% | viability, T/C [20] 32.9% | viability, T/C (second compound 1 µM, first compound 0.00316 µM) 101% | viability, T/C (second compound 1 µM, first compound 0.01 µM) 101% | viability, T/C [21] 99% | viability, T/C [22] 88% | viability, T/C [23] 65.3% | viability, T/C [24] 36.5%
215 nM: IC50 (second compound 0.0316 µM)
266 nM: IC50 (second compound 0.00316 µM)
580 nM: IC50 (second compound 1 µM)
257 nM: IC50 (second compound 0.01 µM)
243 nM: IC50 (second compound 0.316 µM)
278 nM: IC50 (second compound 0.1 µM)

From PubChem BioAssay AID2060905 (Molecular Pharmacology Branch, DTP, NCI, 2025)
